Source: the supplement of paper PMC10307832

Experiments:
Test in all cases: relative viability (nuclei count vs DMSO), 5 days (fraction); higher = more cells survive
[1] = test system: 201T
Outline: (§1)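 Relative viability was taken as the ratio of nuclei in treated wells to nuclei in vehicle wells. Lung cancer cell lines in 1536-well plates received compounds by pin tool one day after seeding, either one drug alone or a fixed anchor-drug dose plus five library-drug doses (not always all listed) in √10 steps. Nuclei were counted on 4× images after 5 days of treatment, and values are medians of duplicate plates.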

[2] = test system: A-427
Outline: as §1

[3] = test system: BEN
Outline: as §1

[4] = test system: COR-L23
Outline: as §1

[5] = test system: EKVX
Outline: as §1

[6] = test system: EMC-BAC-2
Outline: as §1

[7] = test system: EPLC-272H
Outline: as §1

[8] = test system: HCC-44
Outline: as §1

[9] = test system: HCC-827
Outline: as §1

[10] = test system: LCLC-103H
Outline: as §1

[11] = test system: LK-2
Outline: as §1

[12] = test system: LXF-289
Outline: as §1

[13] = test system: NCI-H1651
Outline: as §1

[14] = test system: NCI-H1793
Outline: as §1

[15] = test system: NCI-H1915
Outline: as §1

[16] = test system: NCI-H2087
Outline: as §1

[17] = test system: NCI-H2126
Outline: as §1

[18] = test system: NCI-H2347
Outline: as §1

[19] = test system: NCI-H358
Outline: as §1

[20] = test system: NCI-H441
Outline: as §1

[21] = test system: NCI-H460
Outline: as §1

[22] = test system: NCI-H596
Outline: as §1

[23] = test system: SW 1573
Outline: as §1

CCCCCCCCCCCC1=C(O)C(=O)C=C(O)C1=O [Embelin] + Cc1nc(NC(=O)N2CCC[C@H]2C(N)=O)sc1-c1ccnc(C(C)(C)C(F)(F)F)c1 [Alpelisib] (partner 2 µM)
relative viability ([1]; first compound 0.08 µM): 0.979 | relative viability ([1]; first compound 0.8 µM): 1.03 | relative viability ([1]; first compound 2.53 µM): 0.981 | relative viability ([1]; first compound 8 µM): 0.971 | relative viability ([2]; first compound 0.08 µM): 1.1 | relative viability ([2]; first compound 0.8 µM): 1.13 | relative viability ([2]; first compound 2.53 µM): 1.12 | relative viability ([2]; first compound 8 µM): 1.07 | relative viability ([3]; first compound 0.08 µM): 1.09 | relative viability ([3]; first compound 0.8 µM): 1.31 | relative viability ([3]; first compound 2.53 µM): 1.3 | relative viability ([3]; first compound 8 µM): 1.01 | relative viability ([4]; first compound 0.08 µM): 0.872 | relative viability ([4]; first compound 0.8 µM): 1.11 | relative viability ([4]; first compound 2.53 µM): 0.874 | relative viability ([4]; first compound 8 µM): 0.777 | relative viability ([5]; first compound 0.08 µM): 0.849 | relative viability ([5]; first compound 0.8 µM): 0.914 | relative viability ([5]; first compound 2.53 µM): 0.999 | relative viability ([5]; first compound 8 µM): 0.823 | relative viability ([6]; first compound 0.08 µM): 0.75 | relative viability ([6]; first compound 0.8 µM): 0.736 | relative viability ([6]; first compound 2.53 µM): 0.792 | relative viability ([6]; first compound 8 µM): 0.825 | relative viability ([7]; first compound 0.08 µM): 0.963 | relative viability ([7]; first compound 0.8 µM): 1.21 | relative viability ([7]; first compound 2.53 µM): 0.908 | relative viability ([7]; first compound 8 µM): 0.933 | relative viability ([8]; first compound 0.08 µM): 0.781 | relative viability ([8]; first compound 0.8 µM): 0.767 | relative viability ([8]; first compound 2.53 µM): 0.895 | relative viability ([8]; first compound 8 µM): 1 | relative viability ([9]; first compound 0.08 µM): 1.03 | relative viability ([9]; first compound 0.8 µM): 0.929 | relative viability ([9]; first compound 2.53 µM): 1.07 | relative viability ([9]; first compound 8 µM): 0.961 | relative viability ([10]; first compound 0.08 µM): 1.07 | relative viability ([10]; first compound 0.8 µM): 1.02 | relative viability ([10]; first compound 2.53 µM): 1.02 | relative viability ([10]; first compound 8 µM): 0.866 | relative viability ([11]; first compound 0.08 µM): 1.09 | relative viability ([11]; first compound 0.8 µM): 1.5 | relative viability ([11]; first compound 2.53 µM): 1.09 | relative viability ([11]; first compound 8 µM): 0.99 | relative viability ([12]; first compound 0.08 µM): 1.03 | relative viability ([12]; first compound 0.8 µM): 1.07 | relative viability ([12]; first compound 2.53 µM): 1.08 | relative viability ([12]; first compound 8 µM): 1.13 | relative viability ([13]; first compound 0.08 µM): 0.939 | relative viability ([13]; first compound 0.8 µM): 0.971 | relative viability ([13]; first compound 2.53 µM): 0.945 | relative viability ([13]; first compound 8 µM): 0.873 | relative viability ([14]; first compound 0.08 µM): 0.752 | relative viability ([14]; first compound 0.8 µM): 0.972 | relative viability ([14]; first compound 2.53 µM): 0.794 | relative viability ([14]; first compound 8 µM): 0.728 | relative viability ([15]; first compound 0.08 µM): 1.12 | relative viability ([15]; first compound 0.8 µM): 1.15 | relative viability ([15]; first compound 2.53 µM): 1.11 | relative viability ([15]; first compound 8 µM): 1.08 | relative viability ([16]; first compound 0.08 µM): 0.988 | relative viability ([16]; first compound 0.8 µM): 1.13 | relative viability ([16]; first compound 2.53 µM): 1.03 | relative viability ([16]; first compound 8 µM): 1.08 | relative viability ([17]; first compound 0.08 µM): 0.792 | relative viability ([17]; first compound 0.8 µM): 0.743 | relative viability ([17]; first compound 2.53 µM): 0.799 | relative viability ([17]; first compound 8 µM): 0.748 | relative viability ([18]; first compound 0.08 µM): 1.05 | relative viability ([18]; first compound 0.8 µM): 1.16 | relative viability ([18]; first compound 2.53 µM): 1.11 | relative viability ([18]; first compound 8 µM): 1.16 | relative viability ([19]; first compound 0.08 µM): 0.852 | relative viability ([19]; first compound 0.8 µM): 0.958 | relative viability ([19]; first compound 2.53 µM): 1.09 | relative viability ([19]; first compound 8 µM): 0.918 | relative viability ([20]; first compound 0.08 µM): 0.85 | relative viability ([20]; first compound 2.53 µM): 0.933 | relative viability ([20]; first compound 8 µM): 0.847 | relative viability ([21]; first compound 0.08 µM): 0.448 | relative viability ([21]; first compound 0.8 µM): 0.574 | relative viability ([21]; first compound 2.53 µM): 0.698 | relative viability ([21]; first compound 8 µM): 0.517 | relative viability ([22]; first compound 0.08 µM): 0.487 | relative viability ([22]; first compound 0.8 µM): 0.522 | relative viability ([22]; first compound 2.53 µM): 0.482 | relative viability ([22]; first compound 8 µM): 0.581 | relative viability ([23]; first compound 0.08 µM): 0.815 | relative viability ([23]; first compound 0.8 µM): 0.966 | relative viability ([23]; first compound 2.53 µM): 0.786 | relative viability ([23]; first compound 8 µM): 0.804
